Experimental data as given in patent US20040122059A1, “PPAR-gamma ligands in the treatment of asthma and allergies” (The Penn State Research Foundation, priority 2002, published 2004).
Values joined by “and” are separate entries in the source; they are usually repeats but may differ in a detail not shown here. Equal values may be shown once.

Experiments:
splenocytes = experiment: Antigen specific cytokine production and proliferation of splenocytes from treated mice restimulated in vitro with OVA; assay type: in vivo, Balb/c mice; conditions: for Proliferation: [3H]thymidine
Procedure: Measurement of lymphocyte proliferation and cytokine production. Th cells were cultured in 96 well plates for proliferation assays and 24 well plates for supernatants (Corning Costar, Corning, N.Y.). After 72 h, supernatants were collected for ELISAs. For proliferation assays, 0.4 μCi of [3H]thymidine (ICN, Costa Mesa, Calif.) was added to each well and the cells were incubated for an additional 18 h. Radioactive thymidine incorporation was determined by liquid scintillation using a Beta plate Counter. Mouse IL-2, IL-4, IL-5 and IFN-γ production were detected using ELISA kits from Pharmingen, following the instructions provided. […] Asthma was induced in the mice as described (Zhang et al. 1999. Immunity 11: 473). Briefly mice were injected intraperitoneally with 10 µg of OVA in Alum twice on day 1 and 5 of asthma induction (primed). On day 10, mice were challenged intranasally with OVA in sterile saline, every day for three days (40 μg total). In an alternative protocol the mice were only challenged intranasally (unprimed) with OVA for three consecutive days. Asthma induction was effective with or without the use of immunization (Alum and OVA injections). Two weeks after asthma induction (the day after the last intranasal challenge) the mice were sacrificed. Two different Ciglitazone treatments were done. […] The mice continued on these diets for the remainder of the study.

[1] = tested on: murine model of allergic asthma; experiment: OVA-induced allergic asthma, lung histopathology (asthma severity); assay type: in vivo, Balb/c mice; conditions: for Asthma severity (total histopathology score 0-6): 0.12 μM Ciglitazone/daily per mouse in diet from one week before induction
Procedure: Asthma was induced in the mice as described (Zhang et al. 1999. Immunity 11: 473). Briefly mice were injected intraperitoneally with 10 µg of OVA in Alum twice on day 1 and 5 of asthma induction (primed). On day 10, mice were challenged intranasally with OVA in sterile saline, every day for three days (40 μg total). In an alternative protocol the mice were only challenged intranasally (unprimed) with OVA for three consecutive days. Asthma induction was effective with or without the use of immunization (Alum and OVA injections). Two weeks after asthma induction (the day after the last intranasal challenge) the mice were sacrificed. Two different Ciglitazone treatments were done. […] The mice continued on these diets for the remainder of the study. […] Asthma severity. The lungs were fixed in formalin and sent to the Penn State University Animal Diagnostic Laboratories for sectioning and staining with hematoxylin and eosin. The sections were scored blindly on a scale of 0 to 3 for inflammation and 0-3 for epithelial thickening. […] The inflammation and epithelial scores for each section were added together for a total histopathology score ranging from 0-6. The results are presented as means±SEMs. […] In this model, mice are initially exposed to OVA in complex with Alum intraperitoneally, then challenged intranasally with OVA. This protocol usually leads to increased inflammatory cell infiltration into the lung, thickening of the epithelial cells lining the bronchioles of the lung, mucous secretion and in most cases, increased presence of circulating serum IgE. These symptoms highlight the predominant TH2 nature of this disease. Mice (Balb/c) were primed and with OVA intranasally as described in the Materials and Methods section. Twenty-four hours after the final intranasal challenge, mice were analyzed for immunological symptoms of allergic asthma. […]

TH2 cells = experiment: Cytokine production by TH2-primed DO11.10 CD4+ T cells stimulated with PMA and ionomycin; assay type: cell-based, mouse; conditions: PGJ2 10 mM, CLA 5 mM, 72 h supernatant ELISA
Procedure: (§1) TH cell cultures. Lymph node and spleen cells from the DO11.10 TCR transgenic mice were removed and CD4 positive cells were isolated using the CD4 Immunocolumns and the manufacturer's instructions (Cedarlane labs, Homby, Canada). CD4 positive T cells (95-98% pure) were cultured in vitro with OVA and mitomycin C treated splenocytes from congenic mice. The cultures were incubated under neutral conditions (TH0 priming) or with rIL-4 and anti-IFN-γ antibodies (TH2 priming), or with rIL-12 (TH1 priming). After 4 days (4d) in culture the cells were collected and dead splenocytes were removed by centrifugation over histopaque. […] T cells were collected and recultured with rIL-2 (Pharmingen) for 3 d to expand the T cells. Cells were then collected, washed and stimulated for proliferation and cytokine synthesis with phorbal myristiyl acetate (PMA, Sigma, St. Louis, Mo.) and ionomycin (Sigma) in the presence of PJG2, conjugated linoleic acid (CLA) or control treated.
(§2) Measurement of lymphocyte proliferation and cytokine production. Th cells were cultured in 96 well plates for proliferation assays and 24 well plates for supernatants (Corning Costar, Corning, N.Y.). After 72 h, supernatants were collected for ELISAs. For proliferation assays, 0.4 μCi of [3H]thymidine (ICN, Costa Mesa, Calif.) was added to each well and the cells were incubated for an additional 18 h. Radioactive thymidine incorporation was determined by liquid scintillation using a Beta plate Counter. Mouse IL-2, IL-4, IL-5 and IFN-γ production were detected using ELISA kits from Pharmingen, following the instructions provided. The ELISA detection limits were 25 pg/ml IL-2, 62 pg/ml IL-4, 312 pg/ml IL-5, and 1000 pg/ml IFN-γ.
(§3) The present inventors decided to test if T cells are direct targets of PPAR-γ ligands. Purified CD4+T cells carrying the transgenic TcR for OVA (DO11.10) were cultured in vitro with OVA and mitomycin C treated splenocytes under neutral conditions (THO priming) or with rIL-4 and anti-IFN-γ antibodies (TH2 priming), or with rIL-12 (TH1 priming). Following 4 days of initial culture, cells were isolated and expanded in rIL-2. These expanded antigen specific T cells were stimulated in the presence or absence of PJG2, a PPAR-γ ligand and cells analyzed for proliferation and cytokine synthesis (Table 1). As previously characterized, cells initially stimulated under TH1 conditions (TH1 cells) secreted more IFN-γ and IL-2 and less IL-4 and IL-5 than those initially stimulated under TH2 conditions (TH2 cells). The TH1 and TH2 cells were greater than 95% CD4+and carried the transgenic TcR (data not shown). The PPAR-γ ligand PGJ2 regulated cytokine production in both TH1 and TH2 cells. PGJ2 inhibited IL-4 and IL-5 production in TH1 cells and inhibited IFN-γ, IL-2, and IL-5 production in TH2 cells (Table 1).

TH1 cells = experiment: Cytokine production by TH1-primed DO11.10 CD4+ T cells stimulated with PMA and ionomycin; assay type: cell-based, mouse; conditions: PGJ2 10 mM, CLA 5 mM, 72 h supernatant ELISA
Procedure: as §1, §2, §3

[2] = Primed mice, late Ciglitazone treatment

For `CC1(COc2ccc(CC3SC(=O)NC3=O)cc2)CCCCC1` (stereo not shown) [Ciglitazone], the IL-5 (splenocytes; Primed mice fed Ciglitazone) was 903 ± 87 pg/mL, the Proliferation (splenocytes; Primed mice fed Ciglitazone) was 10649 ± 492 CPM and the IFN-γ (splenocytes; [2]) was 4063 ± 170 pg/mL. For the same compound, the IL-4 (splenocytes; [2]) was 395 ± 92 pg/mL, the IL-5 (splenocytes; [2]) was 875 ± 79 pg/mL and the Proliferation (splenocytes; [2]) was 10579 ± 1477 CPM. For the same compound, the “Asthma severity (total histopathology score 0-6)” value ([1]; PRIMED mice (OVA/Alum i.p., then intranasal OVA)) was 1+/−0.3 and 1.0 ± 0.3, the “Asthma severity (total histopathology score 0-6)” value ([1]; UNPRIMED mice, intranasal OVA challenge only) was 0.8+/−0.2 and 0.8±0.2 and the “Histopathology score of representative lung section (FIG. 1B)” value ([1]; representative lung, Ciglitazone treated) was 1.

`CCCCC/C=C/C=C1/C(=O)C=C[C@@H]1C/C=C\CCCC(=O)O` [PGJ2, 15-deoxy-Delta(12,14)-prostaglandin J(2)] showed an IL-4 (TH2 cells) of 1861 ± 28 pg/mL, an IFN-γ (TH1 cells) of 14370 ± 250 pg/mL and an IL-2 (TH1 cells) of 512 ± 1 pg/mL.

With conjugated linoleic acid [CLA] the IFN-γ (TH2 cells) was 5592 ± 306 pg/mL, the IL-2 (TH2 cells) was 224 ± 4 pg/mL and the IL-4 (TH2 cells) was 1863 ± 62 pg/mL. The IL-5 (TH2 cells) was 240 ± 52 pg/mL, the IFN-γ (TH1 cells) was 14689 ± 370 pg/mL and the IL-2 (TH1 cells) was 522 ± 20 pg/mL. For the same compound, the IL-5 (TH1 cells) was 150 ± 6 pg/mL.
